The record followed here is patent publication US9029531B2 (Agios Pharmaceuticals, Inc., priority 2012, dated 2015).

Structures are written as SMILES.

This assay concerns the target T1, glutaminase (GAC) (Homo sapiens, UniProt O94925).
T1 sequence (O94925 55-598 isoform O94925-3 limits assumed): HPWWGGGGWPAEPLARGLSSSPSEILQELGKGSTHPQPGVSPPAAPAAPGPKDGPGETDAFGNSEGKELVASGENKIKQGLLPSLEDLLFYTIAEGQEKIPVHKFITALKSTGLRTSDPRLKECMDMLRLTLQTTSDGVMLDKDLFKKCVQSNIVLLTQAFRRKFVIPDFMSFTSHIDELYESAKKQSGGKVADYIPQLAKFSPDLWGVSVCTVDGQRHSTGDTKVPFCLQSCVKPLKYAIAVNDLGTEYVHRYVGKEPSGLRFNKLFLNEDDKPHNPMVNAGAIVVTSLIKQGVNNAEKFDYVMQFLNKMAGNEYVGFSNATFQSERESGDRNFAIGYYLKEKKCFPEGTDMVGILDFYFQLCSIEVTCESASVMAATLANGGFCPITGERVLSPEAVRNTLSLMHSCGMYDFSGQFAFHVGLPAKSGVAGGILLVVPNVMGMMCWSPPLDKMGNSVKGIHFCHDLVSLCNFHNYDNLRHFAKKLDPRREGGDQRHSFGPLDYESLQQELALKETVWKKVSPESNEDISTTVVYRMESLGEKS
The experiment in a line: Glutaminase coupled endpoint enzymatic assay (Example A). Type of assay: biochemical. The note with it: inhibition of glutaminase; assay of Example A or Example B. An outline of the steps:
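Endpoint coupled assay: glutamate formed by GAC drives GDH NADH production, recycled by diaphorase reducing resazurin to fluorescent resorufin (Ex544/Em590) after SDS stop. Buffer pH 8.5 with phosphate; glutamine at Km; enzyme preincubated with compound 60 min at room temperature.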

As usually defined, the IC50 is the concentration needed to halve the response being measured. Turning to `O=C(Cc1ccc(N2CCOCC2)cc1)Nc1nnc([C@H]2CCC[C@H](c3nnc(NC(=O)Cc4ccc(N5CCOCC5)cc4)s3)C2)s1` [Compound 265, N,N′-(5,5′-((1S,3S)-cyclohexane-1,3-diyl)bis(1,3,4-thiadiazole-5,2-diyl))bis(2-(4-morpholinophenyl)acetamide)], the 50% inhibitory concentration (IC50) fell in the range of 100 to 500 nM. `O=C(Cc1ccc(N2CC(F)(F)C2)cc1)Nc1nnc([C@H]2CCC[C@H](c3nnc(NC(=O)Cc4ccc(N5CC(F)(F)C5)cc4)s3)C2)s1` [Compound 266, N,N′-(5,5′-((1S,3S)-cyclohexane-1,3-diyl)bis(1,3,4-thiadiazole-5,2-diyl))bis(2-(4-(3,3-difluoroazetidin-1-yl)phenyl)acetamide)] showed a half-inhibitory concentration (IC50) of less than 100 nM. On to `O=C(Cc1cccc(N2CCC2)n1)Nc1nnc([C@H]2CCC[C@H](c3nnc(NC(=O)Cc4cccc(N5CCC5)n4)s3)C2)s1` [Compound 267, N,N′-(5,5′-((1S,3S)-cyclohexane-1,3-diyl)bis(1,3,4-thiadiazole-5,2-diyl))bis(2-(6-(azetidin-1-yl)pyridin-2-yl)acetamide)], for which the 50% inhibitory concentration (IC50) lay in the range of 100 to 500 nM. In turn, `O=C(Cc1cccc(N2CC(F)(F)C2)n1)Nc1nnc([C@H]2CCC[C@H](c3nnc(NC(=O)Cc4cccc(N5CC(F)(F)C5)n4)s3)C2)s1` [Compound 268, N,N′-(5,5′-((1S,3S)-cyclohexane-1,3-diyl)bis(1,3,4-thiadiazole-5,2-diyl))bis(2-(6-(3,3-difluoroazetidin-1-yl)pyridin-2-yl)acetamide)] displayed a 50% inhibitory concentration (IC50) of less than 100 nM. `O=C(Cc1cccc(N2CC(F)(F)C2)c1)Nc1nnc([C@H]2CCC[C@H](c3nnc(NC(=O)Cc4cccc(N5CC(F)(F)C5)c4)s3)C2)s1` [Compound 269] gave an IC50 of 100 to 500 nM. Compound `COC1CN(c2cccc(CC(=O)Nc3nnc([C@H]4CCC[C@H](c5nnc(NC(=O)Cc6cccc(N7CC(OC)C7)n6)s5)C4)s3)n2)C1` [Compound 270, N,N′-(5,5′-((1S,3S)-cyclohexane-1,3-diyl)bis(1,3,4-thiadiazole-5,2-diyl))bis(2-(6-(3-methoxyazetidin-1-yl)pyridin-2-yl)acetamide)] showed a half-maximal inhibitory concentration (IC50) of less than 100 nM. For the compound `O=C(Cc1ccc(N2CC(F)(F)C2)nc1)Nc1nnc([C@H]2CCC[C@H](c3nnc(NC(=O)Cc4ccc(N5CC(F)(F)C5)nc4)s3)C2)s1` [Compound 271, N,N′-(5,5′-((1S,3S)-cyclohexane-1,3-diyl)bis(1,3,4-thiadiazole-5,2-diyl))bis(2-(6-(3,3-difluoroazetidin-1-yl)pyridin-3-yl)acetamide)], the IC50 is less than 100 nM.

`O=C(Cc1cccc(C2CCNCC2)c1)Nc1nnc([C@H]2CCC[C@H](c3nnc(NC(=O)Cc4cccc(C5CCNCC5)c4)s3)C2)s1` [Compound 272, N,N′-(5,5′-((1S,3S)-cyclohexane-1,3-diyl)bis(1,3,4-thiadiazole-5,2-diyl))bis(2-(3-(piperidin-4-yl)phenyl)acetamide)] came in with an IC50 of less than 100 nM. Take `O=C(Cc1c[nH]cn1)Nc1nnc([C@H]2CCC[C@H](c3nnc(NC(=O)Cc4c[nH]cn4)s3)C2)s1` [Compound 273, N,N′-(5,5′-((1S,3S)-cyclohexane-1,3-diyl)bis(1,3,4-thiadiazole-5,2-diyl))bis(2-(1H-imidazol-4-yl)acetamide)]: the IC50 is less than 100 nM. The figure for `Nc1nc(CC(=O)Nc2nnc([C@H]3CCC[C@H](c4nnc(NC(=O)Cc5csc(N)n5)s4)C3)s2)cs1` [Compound 274, N,N′-(5,5′-((1S,3S)-cyclohexane-1,3-diyl)bis(1,3,4-thiadiazole-5,2-diyl))bis(2-(2-aminothiazol-4-yl)acetamide)] is less than 100 nM. `CNc1nc(CC(=O)Nc2nnc([C@H]3CCC[C@H](c4nnc(NC(=O)Cc5csc(NC)n5)s4)C3)s2)cs1` [Compound 275, N,N′-(5,5′-((1S,3S)-cyclohexane-1,3-diyl)bis(1,3,4-thiadiazole-5,2-diyl))bis(2-(2-(methylamino)thiazol-4-yl)acetamide)] registered a half-maximal inhibitory concentration (IC50) of less than 100 nM.

Turning to `O=C(Cc1csc(N2CCOCC2)n1)Nc1nnc([C@H]2CCC[C@H](c3nnc(NC(=O)Cc4csc(N5CCOCC5)n4)s3)C2)s1` [Compound 276, N,N′-(5,5′-((1S,3S)-cyclohexane-1,3-diyl)bis(1,3,4-thiadiazole-5,2-diyl))bis(2-(2-morpholinothiazol-4-yl)acetamide)], the 50% inhibitory concentration (IC50) was in the range of 100 to 500 nM. In the case of `CN(C)c1nc(CC(=O)Nc2nnc([C@H]3CCC[C@H](c4nnc(NC(=O)Cc5csc(N(C)C)n5)s4)C3)s2)cs1` [Compound 278, N,N′-(5,5′-((1S,3S)-cyclohexane-1,3-diyl)bis(1,3,4-thiadiazole-5,2-diyl))bis(2-(2-(dimethylamino)thiazol-4-yl)acetamide)], the IC50 lay in the range of 100 to 500 nM. `COc1nc(CC(=O)Nc2nnc([C@H]3CCC[C@H](c4nnc(NC(=O)Cc5csc(OC)n5)s4)C3)s2)cs1` [Compound 279, N,N′-(5,5′-((1S,3S)-cyclohexane-1,3-diyl)bis(1,3,4-thiadiazole-5,2-diyl))bis(2-(2-methoxythiazol-4-yl)acetamide)] registered an IC50 of less than 100 nM. For the compound `COCCOc1ccc(CC(=O)Nc2nnc([C@H]3CCC[C@H](c4nnc(NC(=O)Cc5cccc(N6CC(F)(F)C6)n5)s4)C3)s2)nc1` [Compound 280, 2-(6-(3,3-difluoroazetidin-1-yl)pyridin-2-yl)-N-(5-((1S,3S)-3-(5-(2-(5-(2-methoxyethoxy)pyridin-2-yl)acetamido)-1,3,4-thiadiazol-2-yl)cyclohexyl)-1,3,4-thiadiazol-2-yl)acetamide], the 50% inhibitory concentration (IC50) was less than 100 nM. Compound `CC(=O)Nc1nnc([C@H]2CCC[C@H](c3nnc(NC(=O)Cc4cccc(N5CC(F)(F)C5)n4)s3)C2)s1` [Compound 281, N-(5-((1S,3S)-3-(5-acetamido-1,3,4-thiadiazol-2-yl)cyclohexyl)-1,3,4-thiadiazol-2-yl)-2-(6-(3,3-difluoroazetidin-1-yl)pyridin-2-yl)acetamide] came in with a 50% inhibitory concentration (IC50) of less than 100 nM. Then `CCC(=O)Nc1nnc([C@H]2CCC[C@H](c3nnc(NC(=O)Cc4cccc(N5CC(F)(F)C5)n4)s3)C2)s1` [Compound 282, N-(5-((1S,3S)-3-(5-(2-(6-(3,3-difluoroazetidin-1-yl)pyridin-2-yl)acetamido)-1,3,4-thiadiazol-2-yl)cyclohexyl)-1,3,4-thiadiazol-2-yl)propionamide], with less than 100 nM; and `O=C(Cc1cccc(N2CC(F)(F)C2)n1)Nc1nnc([C@H]2CCC[C@H](c3nnc(NC(=O)C4CC4)s3)C2)s1` [Compound 283], with 100 to 500 nM. The figure for `COc1ccccc1CC(=O)Nc1nnc([C@H]2CC[C@H](c3nnc(NC(=O)Cc4ccccc4OC)s3)C2)s1` [Compound 284, N,N′-(5,5′-((1S,3S)-cyclopentane-1,3-diyl)bis(1,3,4-thiadiazole-5,2-diyl))bis(2-(2-methoxyphenyl)acetamide)] is less than 100 nM; for `CN(C)c1cccc(CC(=O)Nc2nnc([C@H]3CC[C@H](c4nnc(NC(=O)Cc5cccc(N(C)C)c5)s4)C3)s2)c1` [Compound 285, N,N′-(5,5′-((1S,3S)-cyclopentane-1,3-diyl)bis(1,3,4-thiadiazole-5,2-diyl))bis(2-(3-(dimethylamino)phenyl)acetamide)] it is less than 100 nM. For `COc1ccc(CC(=O)Nc2nnc([C@H]3CC[C@H](c4nnc(NC(=O)Cc5ccc(OC)nc5)s4)C3)s2)cn1` [Compound 286, N,N′-(5,5′-((1S,3S)-cyclopentane-1,3-diyl)bis(1,3,4-thiadiazole-5,2-diyl))bis(2-(6-methoxypyridin-3-yl)acetamide)], the IC50 was less than 100 nM. For `COc1ccnc(CC(=O)Nc2nnc([C@H]3CC[C@H](c4nnc(NC(=O)Cc5cc(OC)ccn5)s4)C3)s2)c1` [Compound 287], the IC50 was less than 100 nM. Consider `O=C(Cc1cccc(N2CC(F)(F)C2)n1)Nc1nnc([C@H]2CC[C@H](c3nnc(NC(=O)Cc4cccc(N5CC(F)(F)C5)n4)s3)C2)s1` [Compound 288, N,N′-(5,5′-((1S,3S)-cyclopentane-1,3-diyl)bis(1,3,4-thiadiazole-5,2-diyl))bis(2-(6-(3,3-difluoroazetidin-1-yl)pyridin-2-yl)acetamide)], for which the half-inhibitory concentration (IC50) was less than 100 nM. With `CN(C)c1cccc(CC(=O)Nc2nnc([C@H]3CC[C@H](c4nnc(NC(=O)Cc5cccc(N(C)C)n5)s4)C3)s2)n1` [Compound 289, N,N′-(5,5′-((1S,3S)-cyclopentane-1,3-diyl)bis(1,3,4-thiadiazole-5,2-diyl))bis(2-(6-(dimethylamino)pyridin-2-yl)acetamide)], the concentration for half-maximal inhibition (IC50) lay in the range of 100 to 500 nM. The figure for `O=C(Cc1ccc(C2CCNCC2)cc1)Nc1nnc([C@H]2CCC[C@H](c3nnc(NC(=O)Cc4ccc(C5CCNCC5)cc4)s3)C2)s1` [Compound 290] is less than 100 nM.
